Reference: US11866450B2, “Modulators of Cystic Fibrosis Transmembrane Conductance regulator, pharmaceutical compositions, methods of treatment, and process for making the modulators” (priority 2018, dated 2024)

Target: CFTR-mediated chloride transport (Homo sapiens, UniProt P13569)
Format: cell-based
Conditions: enteroid cells incubated with test compound 18-24 hours, acute 10 μM forskolin and 300 nM Compound III; for Max. Activity: % of chloride transport with 3 μM Compound A, 3 μM Compound II and 300 nM acute Compound III triple combination control
Summary of the method: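 Membrane-potential fluorescence AUC over 15 min quantified CFTR chloride transport after acute forskolin (10 μM), IBMX (100 μM) and Compound III (300 nM) in chloride-free buffer. Human enteroid cells were pretreated with compound for 18–24 h; % Activity is relative to 3 μM Compound A + 3 μM Compound II + 300 nM Compound III.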

CFTR-mediated chloride transport, sequence (P13569 whole entry, looked up): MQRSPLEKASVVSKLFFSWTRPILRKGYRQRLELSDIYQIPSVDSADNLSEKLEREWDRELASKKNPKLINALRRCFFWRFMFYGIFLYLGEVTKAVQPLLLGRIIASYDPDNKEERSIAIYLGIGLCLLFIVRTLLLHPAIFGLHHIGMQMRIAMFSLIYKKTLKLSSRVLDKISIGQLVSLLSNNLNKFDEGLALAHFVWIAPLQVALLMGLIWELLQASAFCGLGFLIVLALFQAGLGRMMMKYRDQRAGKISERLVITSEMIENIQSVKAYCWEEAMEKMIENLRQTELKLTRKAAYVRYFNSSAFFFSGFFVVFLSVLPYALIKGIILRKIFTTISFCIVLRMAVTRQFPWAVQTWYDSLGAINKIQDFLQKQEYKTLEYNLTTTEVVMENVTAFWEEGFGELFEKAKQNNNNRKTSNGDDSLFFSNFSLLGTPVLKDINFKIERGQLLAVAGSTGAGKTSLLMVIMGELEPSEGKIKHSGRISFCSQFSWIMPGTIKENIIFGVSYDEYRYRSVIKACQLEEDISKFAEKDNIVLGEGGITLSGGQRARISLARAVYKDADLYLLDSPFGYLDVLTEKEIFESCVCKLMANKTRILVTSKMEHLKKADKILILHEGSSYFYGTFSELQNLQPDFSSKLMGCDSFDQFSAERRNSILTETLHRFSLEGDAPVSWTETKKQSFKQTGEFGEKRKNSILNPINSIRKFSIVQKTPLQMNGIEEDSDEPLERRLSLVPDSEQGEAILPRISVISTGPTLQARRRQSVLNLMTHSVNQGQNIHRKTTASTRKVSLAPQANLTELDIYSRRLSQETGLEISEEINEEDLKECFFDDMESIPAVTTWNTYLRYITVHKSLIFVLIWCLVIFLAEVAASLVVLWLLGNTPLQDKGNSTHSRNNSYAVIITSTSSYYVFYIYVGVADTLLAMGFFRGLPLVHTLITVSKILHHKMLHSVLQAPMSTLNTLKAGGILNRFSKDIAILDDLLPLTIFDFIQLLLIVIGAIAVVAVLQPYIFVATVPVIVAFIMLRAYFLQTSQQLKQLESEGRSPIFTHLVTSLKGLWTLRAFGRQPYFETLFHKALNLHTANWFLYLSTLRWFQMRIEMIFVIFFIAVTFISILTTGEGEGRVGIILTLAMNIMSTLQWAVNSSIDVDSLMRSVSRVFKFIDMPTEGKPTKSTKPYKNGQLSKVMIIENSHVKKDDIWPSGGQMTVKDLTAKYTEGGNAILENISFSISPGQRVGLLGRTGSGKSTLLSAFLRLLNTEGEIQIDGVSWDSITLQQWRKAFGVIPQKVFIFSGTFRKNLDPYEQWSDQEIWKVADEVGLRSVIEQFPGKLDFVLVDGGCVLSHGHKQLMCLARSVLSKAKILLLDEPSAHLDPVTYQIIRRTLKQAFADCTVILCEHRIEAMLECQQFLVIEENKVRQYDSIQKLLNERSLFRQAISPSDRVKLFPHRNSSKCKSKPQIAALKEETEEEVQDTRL

| Compound | EC50 [µM] | Max. Activity |
| --- | --- | --- |
| CC1(C)C[C@H]2CCCn3ccc(n3)S(=O)(=O)NC(=O)c3ccc(-n4ccc(OCCC(C5CC5)C5CC5)n4)nc3N1C2 (single isomer, unassigned) [Compound 154, 4-[3-(3,3-dicyclopropylpropoxy)-1H-pyrazol-1-yl]-20,20-dimethyl-10λ^6-thia-1,3,9,14,22-pentaazatetracyclo[16.2.1.111,14.02,7]docosa-2,4,6,11(22),12-pentaene-8,10,10-trione] | < 1 | +++ (+++ is >60%) |
| C[C@@H]1CC[C@H]2CN(c3nc(N4CCN(CCC(C)(C)C)C4=O)ccc3C(=O)NS(=O)(=O)c3cccc(n3)N1)C(C)(C)C2 (single isomer, unassigned) [Compound 215, 8-[3-(3,3-dimethylbutyl)-2-oxoimidazolidin-1-yl]-12,12,17-trimethyl-2λ^6-thia-3,9,11,18,23-pentaazatetracyclo[17.3.1.111,14.05,10]tetracosa-1(22),5,7,9,19(23),20-hexaene-2,2,4-trione] | > 3 | + (+ is <30%) |
| CC1(C)C[C@@H]2CCCNc3cccc(n3)S(=O)(=O)NC(=O)c3ccc(N4CC[C@H](OCCC5C6(CC6)C56CC6)C4=O)nc3N1C2 (single isomer, unassigned) [Compound 180] | < 1 | +++ (+++ is >60%) |
| CC1(C)C[C@H]2CCCNc3cccc(n3)S(=N)(=O)NC(=O)c3ccc(-n4ccc(OCCC5(C(F)(F)F)CC5)n4)nc3N1C2 (single isomer, unassigned) [Compound 266, 2-Imino-12,12-dimethyl-8-(3-{2-[1-(trifluoromethyl)cyclopropyl]ethoxy}-1H-pyrazol-1-yl)-2λ^6-thia-3,9,11,18,23-pentaazatetracyclo[17.3.1.111,14.05,10]tetracosa-1(23),5,7,9,19,21-hexaene-2,4-dione] | < 1 | ++ (++ is 30-60%) |
| CC1(C)C[C@H]2CCCCNc3ccc(cn3)S(=O)(=O)NC(=O)c3ccc(-n4ccc(OCC5C6(CC6)C56CC6)n4)nc3N1C2 (single isomer, unassigned) [Compound 120, 8-[3-({dispiro[2.0.2.1]heptan-7-yl}methoxy)-1H-pyrazol-1-yl]-12,12-dimethyl-2λ^6-thia-3,9,11,19,21-pentaazatetracyclo[18.2.2.111,14.05,10]pentacosa-1(23),5,7,9,20(24),21-hexaene-2,2,4-trione] | < 1 | ++ (++ is 30-60%) |
| CC1(C)C[C@H]2CCNc3cccc(n3)S(=O)(=O)NC(=O)c3ccc(-n4ccc(OCCC(C5CC5)C5CC5)n4)nc3N1C2 (single isomer, unassigned) [Compound 250, 11-[3-(3,3-Dicyclopropylpropoxy)-1H-pyrazol-1-yl]-7,7-dimethyl-17λ^6-thia-2,8,10,16,22-pentaazatetracyclo[16.3.1.15,8.09,14]tricosa-1(22),9,11,13,18,20-hexaene-15,17,17-trione] | < 1 | ++ (++ is 30-60%) |
| CC1(C)C[C@H]2CCCOc3cccc(n3)S(=O)(=O)NC(=O)c3ccc(-n4ccc(OCCC5(C(F)(F)F)CC5)n4)nc3N1C2 (single isomer, unassigned) [Compound 49, 12,12-dimethyl-8-(3-{2-[1-(trifluoromethyl)cyclopropyl]ethoxy}-1H-pyrazol-1-yl)-18-oxa-2λ^6-thia-3,9,11,23-tetraazatetracyclo[17.3.1.111,14.05,10]tetracosa-1(22),5,7,9,19(23),20-hexaene-2,2,4-trione] | < 1 | +++ (+++ is >60%) |
| CC(C)(C)COc1ccn(-c2ccc3c(n2)N2C[C@H](CCNc4cccc(n4)S(=O)(=O)NC3=O)CC2(C)C)n1 (single isomer, unassigned) [Compound 3, 11-[3-(2,2-dimethylpropoxy)-1H-pyrazol-1-yl]-7,7-dimethyl-17λ^6-thia-2,8,10,16,22-pentaazatetracyclo[16.3.1.15,8.09,14]tricosa-1(21),9(14),10,12,18(22),19-hexaene-15,17,17-trione] | < 1 | +++ (+++ is >60%) |
| CN1CCC[C@H]2CN(c3nc(-n4ccc(OCCC(C5CC5)C5CC5)n4)ccc3C(=O)NS(=O)(=O)c3cccc1n3)C(C)(C)C2 (single isomer, unassigned) [Compound 203, 8-[3-(3,3-Dicyclopropylpropoxy)-1H-pyrazol-1-yl]-12,12,18-trimethyl-2λ^6-thia-3,9,11,18,23-pentaazatetracyclo[17.3.1.111,14.05,10]tetracosa-1(22),5,7,9,19(23),20-hexaene-2,2,4-trione] | < 1 | +++ (+++ is >60%) |
| CC1(C)C[C@@H]2CN1c1nc(-n3ccc(OCCC4(C(F)(F)F)CC4)n3)ccc1C(=O)NS(=O)(=O)c1cccc(n1)NCCO2 (single isomer, unassigned) [Compound 75, 12,12-dimethyl-8-(3-{2-[1-(trifluoromethyl)cyclopropyl]ethoxy}-1H-pyrazol-1-yl)-15-oxa-2λ^6-thia-3,9,11,18,23-pentaazatetracyclo[17.3.1.111,14.05,10]tetracosa-1(22),5(10),6,8,19(23),20-hexaene-2,2,4-trione] | < 1 | +++ (+++ is >60%) |
| CC1(C)C[C@H]2CCCNc3ccc(cn3)S(=O)(=O)NC(=O)c3ccc(-n4ccc(OCCC5(C(F)(F)F)CC5)n4)nc3N1C2 (single isomer, unassigned) [Compound 72, 12,12-dimethyl-8-(3-{2-[1-(trifluoromethyl)cyclopropyl]ethoxy}-1H-pyrazol-1-yl)-2λ^6-thia-3,9,11,18,20-pentaazatetracyclo[17.2.2.111,14.05,10]tetracosa-1(22),5,7,9,19(23),20-hexaene-2,2,4-trione] | > 3 | + (+ is <30%) |
| CC1(C)CC[C@H]2CCCNc3cccc(n3)S(=O)(=O)NC(=O)c3ccc(-n4ccc(OCCC(C5CC5)C5CC5)n4)nc3N21 (single isomer, unassigned) [Compound 136, 8-[3-(3,3-dicyclopropylpropoxy)-1H-pyrazol-1-yl]-12,12-dimethyl-2λ^6-thia-3,9,11,19,24-pentaazatetracyclo[18.3.1.05,10.011,15]tetracosa-1(23),5(10),6,8,20(24),21-hexaene-2,2,4-trione] | < 1 | +++ (+++ is >60%) |
| CC(C)(C)CCC[C@H]1CCN(c2ccc3c(n2)N2C[C@@H](CCCNc4cccc(n4)S(=O)(=O)NC3=O)CC2(C)C)C1=O (single isomer, unassigned) [Compound 145] | < 1 | +++ (+++ is >60%) |
| CC1(C)C[C@H]2CCCCNc3ccc(cn3)S(=O)(=O)NC(=O)c3ccc(-n4ccc(OCCC5(C(F)(F)F)CC5)n4)nc3N1C2 (single isomer, unassigned) [Compound 67, 12,12-dimethyl-8-(3-{2-[1-(trifluoromethyl)cyclopropyl]ethoxy}-1H-pyrazol-1-yl)-2λ^6-thia-3,9,11,19,21-pentaazatetracyclo[18.2.2.111,14.05,10]pentacosa-1(23),5,7,9,20(24),21-hexaene-2,2,4-trione] | < 1 | +++ (+++ is >60%) |
| Cc1c2cnn1CCCC1CN(c3nc(-n4ccc(OCC(C)(C)C(F)(F)F)n4)ccc3C(=O)NS2(=O)=O)C(C)(C)C1 (single isomer, unassigned) [Compound 285, 20,20,22-trimethyl-4-[3-(3,3,3-trifluoro-2,2-dimethylpropoxy)-1H-pyrazol-1-yl]-10λ^6-thia-1,3,9,13,14-pentaazatetracyclo[16.2.1.111,14.02,7]docosa-2,4,6,11(22),12-pentaene-8,10,10-trione] | < 1 | + (+ is <30%) |
| CC1CCC2CN(c3nc(-n4ccc(OCCC5(C(F)(F)F)CC5)n4)ccc3C(=O)NS(=O)(=O)c3cccc(n3)N1)C(C)(C)C2 (centres unmarked) [Compound 36, 12,12,17-trimethyl-8-(3-{2-[1-(trifluoromethyl)cyclopropyl]ethoxy}-1H-pyrazol-1-yl)-2λ^6-thia-3,9,11,18,23-pentaazatetracyclo[17.3.1.111,14.05,10]tetracosa-1(23),5(10),6,8,19,21-hexaene-2,2,4-trione] | < 1 | +++ (+++ is >60%) |
| CC1(C)C[C@H]2CCNc3cccc(n3)S(=O)(=O)NC(=O)c3ccc(-n4ccc(OCCC5(C(F)(F)F)CC5)n4)nc3N1C2 (single isomer, unassigned) [Compound 26, 7,7-dimethyl-11-(3-{2-[1-(trifluoromethyl)cyclopropyl]ethoxy}-1H-pyrazol-1-yl)-17λ^6-thia-2,8,10,16,22-pentaazatetracyclo[16.3.1.15,8.09,14]tricosa-1(21),9,11,13,18(22),19-hexaene-15,17,17-trione] | < 1 | +++ (+++ is >60%) |
| CC1(C)CC[C@H]2CCCNc3cccc(n3)S(=O)(=O)NC(=O)c3ccc(-n4ccc(OCCC5(C(F)(F)F)CC5)n4)nc3N21 [Compound 34, (15R)-12,12-dimethyl-8-(3-{2-[1-(trifluoromethyl)cyclopropyl]ethoxy}-1H-pyrazol-1-yl)-2λ^6-thia-3,9,11,19,24-pentaazatetracyclo[18.3.1.05,10.011,15]tetracosa-1(23),5,7,9,20(24),21-hexaene-2,2,4-trione] | < 1 | +++ (+++ is >60%) |
| CC(C)(C)CCCN1CCN(c2ccc3c(n2)N2C[C@@H](CCCNc4cccc(n4)S(=O)(=O)NC3=O)CC2(C)C)C1=O [Compound 193, (14S)-8-[3-(4,4-dimethylpentyl)-2-oxoimidazolidin-1-yl]-12,12-dimethyl-2λ^6-thia-3,9,11,18,23-pentaazatetracyclo[17.3.1.111,14.05,10]tetracosa-1(22),5,7,9,19(23),20-hexaene-2,2,4-trione] | < 1 | +++ (+++ is >60%) |
